Measured values as given in paper PMC4872216, “Novel small molecule 11β-HSD1 inhibitor from the endophytic fungus Penicillium commune” (Scientific Reports, 2016).
Entries after “also recorded” stand apart in the source; their conditions may differ.

Legend:
[1] = target: T1, recombinant human 11β-HSD1 (Homo sapiens, UniProt P28845); test: 11β-HSD1 enzyme inhibition assay (cortisone to cortisol, HPLC-MS/MS); assay type: biochemical; details: cortisone 50 μM, NADPH 1 mM, 37 °C, 30 min, read-out: IC50 (inhibitory activities against 11β-HSD1)
T1 construct: The gene encoding 11β-HSD1 (Genebank: NC_018912.2) was cloned into the pET-28a vector (Novagen); hexa-histidine (C, cleaved yes); made in house; host or cells: E. coli BL21(DE3)
Experimental: To explore the 11β-HSD1 inhibitory activities of compounds 1–8 in vitro, recombinant human 11β-HSD1 protein was incubated with various concentrations of compounds and the enzymatic activity (cortisone to cortisol) was tested using HPLC-MS/MS (Fig. 3).
(§1) The gene encoding 11β-HSD1 (Genebank: NC_018912.2) was cloned into the pET-28a vector (Novagen). After the recombinant plasmids were verified by sequencing, the plasmid was transformed into E. coli BL21(DE3) (Invitrogen) which were grown in LB medium at 37 °C to an OD600 (0.8–1.0) and induced by 0.4 mM isopropyl -D-thiogalactopyranoside (IPTG) at 20 °C for 16 hours. Bacterial cells were lysed by ultrasonification on ice in a buffer containing 20 mM Tris, pH 8.5, 200 mM NaCl, 5 mM mercaptoethanol, 0.1% TritonX-100, and 5% glycerol. Soluble C-terminally hexa-histidine tagged 11β-HSD1 was bound to Ni-agarose affinity resin (Qiagen), washed with a buffer containing 20 mM Tris, pH 8.5, 200 mM NaCl, and 10 mM imidazole, and eluted with a buffer containing 20 mM Tris, pH 8.8, 250 mM NaCl, and 150 mM imidazole. Thrombin (Roche) was added at one unit per 4 mg protein to the elute, which was then dialyzed against 20 mM Tris pH 8.5 and 100 mM NaCl at room temperature for overnight digestion. After thrombin digestion to remove the hexahistidine tag, contaminant proteins were removed by loading the elute onto a second cobalt affinity column equilibrated in the dialyzing buffer and collecting the flow-through. The protein was further purified with anion exchange chromatography, using a linear gradient of 10 mM to 1 M NaCl concentration and size exclusion chromatography at 20 mM Tris pH 8.5 and 200 mM NaCl[22][23].
The inhibitory effects of 1–8 on 11β-HSD1 were measured using recombinant human 11β-HSD1 protein through HPLC-MS/MS method. Briefly, 2.5 μL recombinant 11β-HSD1 protein (0.512 mg protein/ml) was added to 100 μL buffer (100 mM KCl, 20 mM NaCl, 20 mM Hepes, pH 7.5) containing NADPH (1 mM) and cortisone (50 μM) with or without various concentrations of compounds. The reactants were incubated at 37 °C for 30 min. After extraction with dichloromethane, evaporation and resolvation with 200 μL methanol, cortisone and cortisol were measured by HPLC-MS/MS and multi-reactions monitoring (MRM) technology. Detection was performed using a Shimadzu LC-20AD HPLC system equipped with an SHIMADZU VP-ODS 150 L × 4.6 mm column connected to a API 4000 LC/MS/MS system. Samples were analyzed after injection and equilibrated with 45% solution A (0.1% formic acid in water) and 55% solution B (Methanol) under isocratic elution with the flow rate of 0.8 mL/min. The HPLC eluent were tested by HPLC-MS/MS using collision energy 33 eV (cortisol) and 30 eV […] in positive ion mode. Analyst quantitation optimization wizard was used to optimize the collision energies and other electric lens settings for MRM detections. The inhibition rates were calculated using the concentration ratios of cortisone and cortisol in tubes with or without various compounds.

[2] = target: T1, recombinant human 11β-HSD1; test: Binding affinity assay using microscale thermophoresis (MST); details: labelled 11β-HSD1 50 nM, 22 °C, means ± SD for three experiments; for Kd: read-out: Kd (dissociation constant with 11β-HSD1)
Source text: Measuring the thermophoretic behaviour of a protein in the presence of differing ligand concentrations by MST allows quantitative analysis of molecular interactions in solution. The MST technique has previously been used to investigate protein-protein, small organic molecule-protein and antibody-protein interactions.
as §1
The ability of the purified 11β-HSD1 to bind with potential ligands was analyzed using MST. The protein was labeled with the Monolith NT™ Protein Labeling Kit RED (Cat#L001) according to the supplied labeling protocol. Labelled 11β-HSD1 was kept constant at 50 nM, while all samples tested were diluted in a 20 mM HEPES (pH 7.5) and 0.05 (v/v)% Tween-20. Compounds were diluted in 12 dilution steps covering the range of appropriate concentrations. After 10 min incubation at room temperature, samples were loaded into Monolith^TM standard-treated capillaries and the thermophoresis was measured at 22 °C after 30 min incubation on a Monolith NT.115 instrument (NanoTemper Technologies, München, Germany). Laser power was set to 40% using 30 seconds on-time and the LED power was set to 100%. The dissociation constrant Kd values were fitted by using the NTAnalysis software (NanoTemper Technologies, München, Germany).

[3] = tested on: 11β-HSD1 expression in 3T3-L1 cells; test: 11β-HSD1 expression in 3T3-L1 cells (western blot); assay type: cell-based; details: differentiation-induced 3T3-L1 preadipocytes, β-Actin loading control
Experimental: Figure 5 Effects of compound 3 on lipid accumulation and 11β-HSD1 expression in 3T3-L1 cells. Preadipocytes were induced to differentiate in the presence or absence of compound 3, which was then stained with Oil Red O and photographed (40×). 11β-HSD1 expressions were determined by western blot. β-Actin was used as a loading control.
(§2) 3T3-L1 preadipocytes were purchased from Shanghai Institute of Cell Biology, Chinese Academy of Sciences. Both of them were cultured in DMEM medium (Gibco, USA) containing 10% FBS, penicillin (100 U/mL), streptomycin […] in 5% CO2 at 37 °C. 3T3-L1 preadipocytes were induced to differentiate as previously described. In short, differentiation was induced by adding 0.5 mmol/L 3-isobutyl-1-methyxanthine (Sigma), 10 μg/mL insulin (Sigma), and […] dexamethasone (Sigma) to the medium. After 48 h incubation (d2), the medium was replaced with DMEM containing 10 μg/mL insulin and 50 μM compound 3. On d4, the medium was replaced with DMEM containing compound 3, and then changed back to the same medium every on d6.
Cells were treated and then lysed in a radio immune-precipitation assay buffer. Protein concentrations were determined using a BCA protein assay kit (Byontime, Beijing, China) and equalized before loading. […]

3T3-L1 preadipocytes = test: Lipid accumulation in differentiation-induced 3T3-L1 preadipocytes (Oil Red O staining); assay type: cell-based; details: 3T3-L1 preadipocytes induced to differentiate, 50 μM compound, 6 days
Experimental: It was reported that 11β-HSD1 is highly expressed in normal liver[18] and stimulates pre-adipocyte differentiation. As a result, many 11β-HSD1 inhibitors were investigated to prevent adipogenesis. To further examine the 11β-HSD1 inhibitory effects of compound 3, we examined the anti-adipogenic effect of compound 3 during the differentiation of 3T3-L1 cells.
as §2
Preadipocytes 3T3-L1 were induced to differentiate with or without compounds 3 for 6 days, and then washed twice with PBS, fixed in 3.7% formaldehyde for 1 h and stained with Oil Red O for another 1 h at room temperature. Cells were then washed several times with PBS, and photographed by a light microscope (Olympus, Japan).

T1 sequence (P28845 whole entry): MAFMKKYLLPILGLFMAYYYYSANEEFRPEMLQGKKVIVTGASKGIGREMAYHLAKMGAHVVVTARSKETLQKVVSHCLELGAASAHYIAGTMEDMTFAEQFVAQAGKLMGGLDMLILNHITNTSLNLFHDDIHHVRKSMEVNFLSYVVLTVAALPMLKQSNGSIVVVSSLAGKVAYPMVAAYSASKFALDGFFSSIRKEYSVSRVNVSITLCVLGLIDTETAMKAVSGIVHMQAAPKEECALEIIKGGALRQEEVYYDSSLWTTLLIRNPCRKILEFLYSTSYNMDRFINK

SMILES	IC50 [1]	Kd [2]	Kd (dissociation constant with 11β-HSD1) [2]	11β-HSD1 expression [3]	lipid droplet accumulation (3T3-L1 preadipocytes)
CC(=O)c1cc(C)c(O)c(C[C@]23Cc4c(O)c(C(C)=O)cc(C)c4O[C@@]2(O)[C@@H](C)OC3=O)c1O [Compound 8, penilactones A]	> 200 µM		either no binding or no statistically significant binding was detected and n.b.		
CN1C(=O)c2ccccc2NC(=O)C12OC2c1ccccc1 (centres unmarked) [Compound 6, cyclopenin]		513 ± 10.6 µM			
CC(C)=CCC[C@]1(C)[C@@H](O)CC[C@@]2(C)[C@H]1CC[C@H]1Cc3c([nH]c4ccccc34)[C@@]12C [Compound 7, emindole SB]	> 200 µM		either no binding or no statistically significant binding was detected and n.b.		

Further lines, with some results ahead:

IC50 [1]	Kd [2]	SMILES	Kd (dissociation constant with 11β-HSD1) [2]	11β-HSD1 expression [3]	lipid droplet accumulation (3T3-L1 preadipocytes)
> 200 µM		COc1cc(Cc2c(O)c(C)cc(C(C)=O)c2O)c(OC)cc1O [Compound 2, Penicophenone B]	either no binding or no statistically significant binding was detected and n.b.		
9.07 ± 0.61 µM	82.1 ± 5.01 µM	CN1C(=O)c2ccccc2NC(=O)[C@@H](Cc2ccccc2)N(C)C(=O)c2ccccc2NC(=O)[C@H]1Cc1ccccc1 [Compound 3, Penicopeptide A]		inhibition of 11β-HSD1 expression	decreased the lipid droplet accumulation
> 200 µM		CN1C(=O)c2ccccc2NC(=O)/C1=C/c1ccccc1 [Compound 4, 3-benzylidene-3,4-dihydro-4-methyl-lH-l,4-benzodiazepine-2,5-dione]	either no binding or no statistically significant binding was detected and n.b.		
45.5 ± 7.82 µM	421 ± 12.1 µM	CN1C(=O)c2ccccc2NC(=O)C12OC2c1cccc(O)c1 (single isomer, unassigned; (+)) [Compound 5, (+)-cyclopenol]			
> 200 µM		CC(=O)c1cc(C)c2c(c1O)C[C@H](C)[C@@]1(C[C@@H](O)C[C@@H](C)O1)O2 [Compound 1, Penicophenone A]	either no binding or no statistically significant binding was detected; also recorded: n.b.b		
